Source: patent US20240082463A1, “COATED MEDICAL PRODUCT” (HEMOTEQ AG, priority 2020, published 2024)
Read-outs that look alike come from different tables or passages of the source.

Legend:
[1] = cited from earlier work
[2] = Preparation and stability of crystal suspensions of microcrystalline paclitaxel with solutions of different tri-O-acylglycerols; conditions: for stability of crystal suspension: after 24-48 hours and temperature elevation to 50° C.; for microcrystals intact in SEM images: SEM 200× and 1000×; for microcrystals of paclitaxel dissolve directly in the solution: directly after combining, room temperature; for paclitaxel microcrystals on temperature increase: temperature increased (50° C.)
Excerpt: In the first step, solutions of tri-O-acylglycerols were first prepared in a solvent mixture. Subsequently, the solutions were combined with microcrystals of paclitaxel to investigate which tri-O-acylglycerols could be used to obtain stable crystal suspensions. […] For the preparation of the solutions, an ethyl acetate/heptane solvent mixture was used here as an example.
To prepare the solutions, the respective tri-O-acylglycerol was first dissolved in a polar organic solvent and then a non-polar solvent was added.
To prepare the solutions, 770 mg of the respective tri-O-acylglycerol were dissolved in 14 g ethyl acetate (15.6 mL). Then, 57.4 g of n-heptane (84.4 mL) was added.
Subsequently, homogenization and filtration were performed. The total volume of the solvent mixture is 100 mL.
To a precisely weighed amount of dry microcrystals of the previously prepared paclitaxel, a defined amount of the solutions containing tri-O-acylglycerol and optionally antioxidant is carefully added.
To check whether crystal suspension can be prepared, to each 200 mg of paclitaxel in the form of microcrystals were carefully added 10 mL of one of the solutions 1a) to 1j) at room temperature. Six mixtures of 10 mL of solution for each solution were prepared. After combining, it was tested whether the microcrystals of paclitaxel dissolved directly in the solutions.
To evaluate the crystal size, particle size distribution (i.e., crystal size distribution), and shape of the crystals, a sample was taken with a Pasteur pipette in each case and a drop was placed on the slide of the SEM sample plate. SEM images were taken at 200× and 1000× magnification for evaluation.
To evaluate the crystal size, particle size distribution (i.e., crystal size distribution), and shape of the crystals, one sample was taken from each using a Pasteur pipette and one drop was placed on the foil of the SEM sample plate. An additional sample was taken from the sediment and one drop was placed on the slide of the SEM sample plate. SEM images were taken at 200× and 1000× magnification for evaluation. SEM images were taken at 200 and 1000× magnification for evaluation.
To prepare the solutions, 770 mg of the respective tri-O-acylglycerol were dissolved in 14 g ethyl acetate (15.6 mL). Then, 57.4 g of n-heptane (84.4 mL) was added. Subsequently, homogenization and filtration were performed. The total volume of the solvent mixture is 100 mL.
Three mixtures of 10 mL of solution for each solution were prepared. After combining, it was tested whether the microcrystals dissolved directly in these solutions.

[3] = cited from earlier work; remark: listed apart in the source
[4] = Crystal suspensions of microcrystalline paclitaxel in different solvent mixtures; assay type: physicochemical; parameters: key: +++: good; +/−: average; −−−: poor; conditions: with trioctanoylglycerol
Method: To prepare the solutions, 770 mg of trioctanoylglycerol was dissolved in the polar solvent. Then the nonpolar solvent was added. It was then homogenized and filtered.
To test whether crystal suspension could be prepared, 10 mL of each of the solutions was carefully added to 200 mg of paclitaxelin the form of microcrystals at room temperature. After combining, it was tested whether stable crystal suspensions were obtained.

For `CC1CCCC1` [Methylcyclopentane], the logKOW ([1]; Table 2, rounded values) is listed as 3.4.

For `O` [Water], the logKOW ([1]; Table 5, rounded orientation values) is listed as “approx. −1.4”.

For `CCOCC` [Diethyl ether], the logKOW ([1]; Table 6, rounded values) is listed as “+0.9” and the logKOW ([1]; Table 7) is listed as 0.89.

For `CC(C)Cc1ccccc1` [2-Methyl-1-phenylpropane], the logKOW ([1]; Table 4) is listed as 3.4.

For `CCCC(C)(C)C` [2,2-Dimethylpentane], the logKOW ([1]; Table 2, rounded values) is listed as 3.8.

For `Cc1ccc(C)cc1` [p-Xylene], the logKOW ([1]; Table 4) is given as 3.2 and the logKOW ([1]; Table 8) is given as 3.15.

For `CCCC(C)=O` [Solution 2-Pentanone, 2-Pentanone], the logKOW ([1]; Table 6, rounded values) is listed as “+0.9” and the logKOW ([1]; Table 7) is listed as 0.84.

In the case of `CO` [Methanol], the logKOW ([1]; Table 6, rounded values) is listed as −0.7 and the logKOW ([1]; Table 7) is listed as −0.74.

For `C1CCCC1` [Cyclopentane], the logKOW ([1]; Table 2, rounded values) is given as 3.0 and the logKOW ([1]; Table 8) is given as 3.00.

In the case of `CCCCCCCCC(=O)OCC(COC(=O)CCCCCCCC)OC(=O)CCCCCCCC` [trinonanoylglycerol], the “stability of crystal suspension” value [2] is given as “remained stable” and the solubility in water [3] is given as “practically insoluble”.

For `C1COCCO1` [1,4-Dioxane], the logKOW ([1]; Table 6, rounded values) is given as −0.4, the logKOW ([1]; Table 7) is given as −0.42 and the “log KOW” value [1] is given as “about −0.4”.

For `CCOc1ccccc1` [Ethoxybenzene], the logKOW ([1]; Table 4) is given as 2.5.

In the case of `Clc1ccccc1Cl` [o-Dichlorobenzene], the logKOW ([1]; Table 4) is listed as 3.4.

For `CC(C)(C)C1CCCCC1` [tert-butylcyclohexane], the logKOW ([1]; Table 2, rounded values) is listed as 4.0.

For `CCC(C)c1ccccc1` (stereo not drawn) [2-Phenylbutane], the logKOW ([1]; Table 4) is given as 3.4.

In the case of `CC(C)c1ccccc1` [Cumol], the logKOW ([1]; Table 4) is given as 3.4.

In the case of `COC(C)=O` [Methyl acetate], the logKOW ([1]; Table 6, rounded values) is listed as “+0.2”.

For `C1CCCCCCCCC1` [Cyclodecane], the logKOW ([1]; Table 2, rounded values) is listed as 5.5.

In the case of `CCCOC(C)=O` [n-Propyl acetate], the logKOW ([1]; Table 6, rounded values) is listed as “+1.4”.

In the case of `COc1ccccc1` [Anisol], the logKOW ([1]; Table 4) is listed as 2.1.

In the case of `CCc1ccccc1` [Ethylbenzene], the logKOW ([1]; Table 4) is listed as 3.2.

In the case of `CN1CCCC1=O` [N-methylpyrrolidone], the logKOW ([1]; Table 6, rounded values) is given as −0.5.

For `CCCC(C)C` [2-Methylpentane], the logKOW ([1]; Table 2, rounded values) is given as 3.6.

In the case of `CCCCc1ccccc1` [1-Phenylbutane], the logKOW ([1]; Table 4) is given as 3.4.

In the case of `FC(F)(F)C(F)(F)C(F)(F)C(F)(F)C(F)(F)C(F)(F)F` [Tetradecafluorohexane], the logKOW ([1]; Table 4) is given as 5.8.

For `CCC(C)C` [Isopentane], the logKOW ([1]; Table 2, rounded values) is listed as 3.2.

For `ClC(Cl)(Cl)Cl` [Carbon tetrachloride], the logKOW ([1]; Table 3, rounded orientation values) is listed as “approx. 2.8” and the logKOW ([1]; Table 4) is listed as 2.8.

For `CCCCCCCCCC` [Decan], the logKOW ([1]; Table 2, rounded values) is listed as 6.3.

In the case of `Cc1cccc(C)c1` [m-Xylene], the logKOW ([1]; Table 4) is listed as 3.2 and the logKOW ([1]; Table 8) is listed as 3.20.

For `CC(C)CC(C)(C)C` [2,2,4-Trimethylpentane], the logKOW ([1]; Table 2, rounded values) is listed as 4.1.

For `Clc1ccccc1` [Chlorobenzene], the logKOW ([1]; Table 4) is listed as 2.9 and the “log KOW” value [1] is listed as “about 2.9”.

For `CCCCCCCC` [Octane], the logKOW ([1]; Table 2, rounded values) is given as 5.2.

In the case of `C1CCOC1` [Tetrahydrofuran (THF), Tetrahydrofuran], the logKOW ([1]; Table 6, rounded values) is listed as “+0.5” and the logKOW ([1]; Table 7) is listed as 0.46.

For `CCC(C)=O` [Solution 2-Butanone, 2-Butanone], the logKOW ([1]; Table 7) is listed as 0.29.

In the case of `CCCCCCCCCCCC(=O)OCC(COC(=O)CCCCCCCCCCC)OC(=O)CCCCCCCCCCC` [tridodecanoylglycerol], the “sedimentation of the microcrystals” value [2] is reported as “sedimentation of the crystals occurred”, the “state of paclitaxel microcrystals in the suspension after 100 h” value (shortened to “state of paclitaxel microcrystals”) [2] is reported as “did not dissolve completely” and the “microcrystals intact in SEM images” value [2] is reported as “did not remain intact”. The “microcrystals of paclitaxel dissolve directly in the solution” value (“microcrystals … in the solution” below) [2] was “did not dissolve directly”.

For `CCCCCCC(=O)OCC(COC(=O)CCCCCC)OC(=O)CCCCCC` [triheptanoylglycerol], the “state of paclitaxel microcrystals” value [2] was “partially dissolved”, the “microcrystals intact in SEM images” value [2] was “did not remain intact” and the “microcrystals … in the solution” value [2] was “did not dissolve directly”. For the same compound, the “paclitaxel microcrystals on temperature increase” value [2] was “dissolved”.

In the case of `CCOC(C)=O` [Ethyl acetate], the logKOW ([1]; Table 6, rounded values) is given as “+0.7” and the logKOW ([1]; Table 7) is given as 0.73.

In the case of `CCC(=O)O` [Propionic acid], the logKOW ([1]; Table 7) is listed as 0.32.

In the case of `OCC(O)CO` [Glycerin], the logKOW ([1]; Table 6, rounded values) is listed as −1.8.

In the case of `CC#N` [Acetonitrile], the logKOW ([1]; Table 6, rounded values) is given as −0.3 and the logKOW ([1]; Table 7) is given as −0.34.

With `CCCCCCCCCCCCCC(=O)OCC(COC(=O)CCCCCCCCCCCCC)OC(=O)CCCCCCCCCCCCC` [tritetradecanoylglycerol] the “sedimentation of the microcrystals” value [2] was “sedimentation of the crystals occurred”, the “state of paclitaxel microcrystals” value [2] was “did not dissolve completely” and the “microcrystals intact in SEM images” value [2] was “did not remain intact”. The “microcrystals … in the solution” value [2] was “did not dissolve directly”.

In the case of `C1CCCCCCCC1` [Cyclononan], the logKOW ([1]; Table 2, rounded values) is listed as 5.1.

For `CC(C)=O` [Acetone], the logKOW ([1]; Table 6, rounded values) is listed as −0.2 and the logKOW ([1]; Table 7) is listed as −0.24.

In the case of `CC1CCCCC1` [Methylcyclohexane], the logKOW ([1]; Table 2, rounded values) is listed as 3.9.

For `CCCOCCC` [Dipropyl ether], the logKOW ([1]; Table 6, rounded values) is given as “+2.0”.

In the case of `ClCCl` [Dichloromethane], the logKOW ([1]; Table 6, rounded values) is given as “+1.3” and the logKOW ([1]; Table 7) is given as 1.25.

For `CCC(C)C(C)C` (stereo not drawn) [2,3-Dimethylpentane], the logKOW ([1]; Table 2, rounded values) is listed as 3.8.

For `CC(=O)O[C@H]1C(=O)[C@@]2(C)[C@H]([C@H](OC(=O)c3ccccc3)[C@]3(O)C[C@H](OC(=O)[C@H](O)[C@@H](NC(=O)c4ccccc4)c4ccccc4)C(C)=C1C3(C)C)[C@]1(OC(C)=O)CO[C@@H]1C[C@@H]2O` [paclitaxel, (2α,4α,5β,7β,10β,13α)-4,10-Bis(acetyloxy)-13-{[(2R,3S)-3-(benzoylamino)-2-hydroxy-3-phenylpropanoyl]oxy}-1,7-dihydroxy-9-oxo-5,20-epoxytax-11-en-2-yl-benzoat], the Crystal suspension ([4]; Acetone/Cyclohexane 10:90 (v/v polar/non-polar)) was “+++”, the Crystal suspension ([4]; Acetone/Cyclohexane 50:50 (v/v polar/non-polar)) was “−−−” and the Crystal suspension ([4]; Acetone/Cyclohexane 60:40 (v/v polar/non-polar)) was “−−−”. The Crystal suspension ([4]; Acetone/Heptane 10:90 (v/v polar/non-polar)) was “+++”, the Crystal suspension ([4]; Acetone/Heptane 60:40 (v/v polar/non-polar)) was “−−−” and the Crystal suspension ([4]; Acetone/Hexane 10:90 (v/v polar/non-polar)) was “+++”. The Crystal suspension ([4]; Acetone/Hexane 50:50 (v/v polar/non-polar)) was “−−−”, the Crystal suspension ([4]; Acetone/Hexane 60:40 (v/v polar/non-polar)) was “−−−” and the Crystal suspension ([4]; Ethanol/Cyclohexane 10:90 (v/v polar/non-polar)) was “+++”. For the same compound, the Crystal suspension ([4]; Ethanol/Cyclohexane 60:40 (v/v polar/non-polar)) was “−−−”, the Crystal suspension ([4]; Ethanol/Heptane 10:90 (v/v polar/non-polar)) was “+++” and the Crystal suspension ([4]; Ethanol/Heptane 60:40 (v/v polar/non-polar)) was “−−−”. For the same compound, the Crystal suspension ([4]; Ethanol/Hexane 10:90 (v/v polar/non-polar)) was “+++”, the Crystal suspension ([4]; Ethanol/Hexane 60:40 (v/v polar/non-polar)) was “−−−” and the Crystal suspension ([4]; Ethyl acetate/Cyclohexane 10:90 (v/v polar/non-polar)) was “+++”. For the same compound, the Crystal suspension ([4]; Ethyl acetate/Cyclohexane 30:70 (v/v polar/non-polar)) was “+++”, the Crystal suspension ([4]; Ethyl acetate/Cyclohexane 40:60 (v/v polar/non-polar)) was “+++” and the Crystal suspension ([4]; Ethyl acetate/Cyclohexane 60:40 (v/v polar/non-polar)) was “+/−”. For the same compound, the Crystal suspension ([4]; Ethyl acetate/Heptane 10:90 (v/v polar/non-polar)) was “+++”, the Crystal suspension ([4]; Ethyl acetate/Heptane 30:70 (v/v polar/non-polar)) was “+++” and the Crystal suspension ([4]; Ethyl acetate/Heptane 40:60 (v/v polar/non-polar)) was “+++”. The Crystal suspension ([4]; Ethyl acetate/Heptane 60:40 (v/v polar/non-polar)) was “+/−”, the Crystal suspension ([4]; Ethyl acetate/Hexane 10:90 (v/v polar/non-polar)) was “+++” and the Crystal suspension ([4]; Ethyl acetate/Hexane 30:70 (v/v polar/non-polar)) was “+++”. The Crystal suspension ([4]; Ethyl acetate/Hexane 40:60 (v/v polar/non-polar)) was “+++”, the Crystal suspension ([4]; Ethyl acetate/Hexane 60:40 (v/v polar/non-polar)) was “+/−” and the Crystal suspension ([4]; iso-propanol/Cyclohexane 10:90 (v/v polar/non-polar)) was “+++”. The Crystal suspension ([4]; iso-propanol/Cyclohexane 50:50 (v/v polar/non-polar)) was “−−−”, the Crystal suspension ([4]; iso-propanol/Cyclohexane 60:40 (v/v polar/non-polar)) was “−−−” and the Crystal suspension ([4]; iso-propanol/Heptane 10:90 (v/v polar/non-polar)) was “+++”. For the same compound, the Crystal suspension ([4]; iso-propanol/Heptane 50:50 (v/v polar/non-polar)) was “−−−”, the Crystal suspension ([4]; iso-propanol/Heptane 60:40 (v/v polar/non-polar)) was “−−−” and the Crystal suspension ([4]; iso-propanol/Hexane 10:90 (v/v polar/non-polar)) was “+++”. For the same compound, the Crystal suspension ([4]; iso-propanol/Hexane 50:50 (v/v polar/non-polar)) was “−−−” and the Crystal suspension ([4]; iso-propanol/Hexane 60:40 (v/v polar/non-polar)) was “−−−”.

In the case of `CCC(C)(C)C` [2,2-Dimethylbutane], the logKOW ([1]; Table 2, rounded values) is listed as 3.8.

In the case of `CCCCCCC` [Heptane], the logKOW ([1]; Table 2, rounded values) is listed as 4.5 and the logKOW ([1]; Table 8) is listed as 4.50.

In the case of `Cc1ccccc1C` [o-Xylene], the logKOW ([1]; Table 4) is listed as 3.1 and the logKOW ([1]; Table 8) is listed as 3.12.

For `CC(C)Cc1ccccc1` [iso-butylbenzene], the logKOW ([1]; Table 4) is given as 4.1.

For `C1CCCCCC1` [Cycloheptane], the logKOW ([1]; Table 2, rounded values) is listed as 4.

In the case of `CCCCCCCCC` [Nonan], the logKOW ([1]; Table 2, rounded values) is listed as 5.7.

For `CCCCC(C)C` [2-Methylhexane], the logKOW ([1]; Table 2, rounded values) is listed as 3.7.

With `CCCCCCCCCCC(=O)OCC(COC(=O)CCCCCCCCCC)OC(=O)CCCCCCCCCC` [triundecanoylglycerol, 1,3-bis(undecanoyloxy)propan-2-yl-undecanoate] the “sedimentation of the microcrystals” value [2] was “no sedimentation”, the “microcrystals intact in SEM images” value [2] was “remained intact” and the “stability of crystal suspension” value [2] was “remained stable”. The solubility in water [3] was “practically insoluble”.

With `CCCCCC(=O)OCC(COC(=O)CCCCC)OC(=O)CCCCC` [trihexanoylglycerol] the “state of paclitaxel microcrystals” value [2] was “not as uniformly present”, the “microcrystals … in the solution” value [2] was “did not dissolve directly” and the “paclitaxel microcrystals on temperature increase” value [2] was “dissolved rapidly”.
